Reference: PubChem BioAssay (NCI)
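Briefly, cells in 96-well plates were exposed to five compound concentrations for 48 h, and endpoints were estimated by linear interpolation. TGI denotes the concentration required for complete inhibition of growth.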

What was measured:
Assay in all cases: NCI anticancer screen, dose series, 48 h
EKVX NSCLC = test system: EKVX NSCLC
SW-620 colon = test system: SW-620 colon
HOP-92 NSCLC = test system: HOP-92 NSCLC
NCI-H226 lung = test system: NCI-H226 lung
SNB-75 CNS = test system: SNB-75 CNS
CAKI-1 renal = test system: CAKI-1 renal
A549 NSCLC = test system: A549 NSCLC
OVCAR-8 ovarian = test system: OVCAR-8 ovarian
NCI/ADR-RES ovarian = test system: NCI/ADR-RES ovarian
HCC-2998 colon = test system: HCC-2998 colon

| SMILES | TGI (EKVX NSCLC) [µM] | TGI (SW-620 colon) [µM] | TGI (HOP-92 NSCLC) [µM] | TGI (NCI-H226 lung) [µM] | TGI (SNB-75 CNS) [µM] | TGI (CAKI-1 renal) [µM] | TGI (A549 NSCLC) [µM] | TGI (OVCAR-8 ovarian) [µM] | TGI (NCI/ADR-RES ovarian) [µM] | TGI (HCC-2998 colon) [µM] |
| --- | --- | --- | --- | --- | --- | --- | --- | --- | --- | --- |
| COC1=CC(=O)CC(C)C12Oc1c(Cl)c(OC)cc(OC)c1C2=O (stereo unspecified) | > 100 | > 100 | 98.3 | > 100 | 28.5 | 84.9 | > 100 | > 100 | > 76.4 | > 100 |
| Cc1cccc(N2C(=O)C3c4[nH]c5ccccc5c4C4CCC(C(C)(C)C)CC4C3C2=O)c1 (stereo unspecified) | 31.4 | 24.1 |  | 34.1 |  | 26.1 | 22.3 | 13.3 | 32.2 |  |
| CC(=O)Nc1c(S(=O)(=O)c2ccccc2)c(C)c(C)n1Cc1ccccc1 | > 100 | > 100 | > 100 | > 100 | > 100 | > 100 | > 100 | > 100 | > 100 | > 100 |
| CCOC(=O)C(NC(=O)c1ccccc1)(N1CCN(c2cc3c(cc2F)c(=O)c(C(=O)O)cn3CC)CC1)C(F)(F)F (stereo unspecified) | 49 | > 100 | 84.4 | 90.7 | 90 | 48.4 | > 100 | 47.3 | > 100 | > 100 |
| O=c1oc2ccccc2cc1-c1cn2c(n1)sc1ccccc12 | 34.3 | > 100 | > 100 | > 100 | > 100 | > 100 | > 100 | > 100 | > 100 | > 100 |
| c1csc(-c2ccsc2-c2cccs2)c1 | > 100 | > 100 | > 100 | > 100 | > 100 | > 100 | 61 | > 100 | > 100 | > 100 |
| O=C(O)c1cnc(-n2[nH]c3c(c2=O)CCCC3)[nH]c1=O | > 100 | > 100 | > 100 | > 100 |  | > 100 | > 100 | > 100 | > 100 |  |
| Cc1ccc(C2=C(C#N)C(N)OC3=C2COc2ccccc23)cc1 (stereo unspecified) | 37.4 | > 100 | > 100 | > 100 |  |  | > 100 |  | > 100 | > 100 |
| Cc1cc(S(=O)(=O)Nc2nc3ccccc3nc2-c2ccc(Cl)cc2)c(S)cc1Cl | 29.1 |  | 46.9 | 47.9 |  | 36.8 | 33.6 | 51.6 | 36.9 | 29.1 |
| CCOC(=O)C(Cc1ccc(OC(=O)OC(C)(C)C)cc1)NC(=O)OC(C)(C)C (stereo unspecified) | > 100 | > 100 |  | > 100 | 62.6 | > 100 | > 100 | > 100 | > 100 | 76.6 |
| OCCN(/N=C\c1ccc2ccccc2c1)C1=NCCN1 | > 100 | 55.6 | 53.1 | 36.1 | > 100 |  | > 100 | > 100 |  | 32.6 |
| O=C(/C=C(\S/C=C(/c1ccccc1)N1CCn2c(C(=O)c3ccccc3)c(C(=O)c3ccccc3)c(C(=O)c3ccccc3)c21)C(=O)c1ccccc1)c1ccccc1 | > 10 | > 10 | > 10 |  | > 10 | > 10 | > 10 | > 10 | > 10 | > 10 |
| Cn1c(CO)ccc1-c1ccc(-c2ccc[se]2)[se]1 | > 100 | 77.8 |  | 4.78 | 37.2 |  | > 100 | > 100 | > 100 | > 47.7 |
| O=C(CSc1nc(-c2ccccc2)c(-c2ccccc2)[nH]1)N/N=C/c1ccc(O)cc1 | 84.4 | > 100 | 84.9 | 82 | 52.7 |  | 69.5 | 48 |  | 61.1 |
| COc1c2c(c3ccccc3c1O)C1C=CC2C1 (stereo unspecified) | 33 | 34.3 |  |  |  | 30.8 | 36.6 | 28.7 |  | 29.7 |
| Cc1ccc(C(=O)Nc2ccc(CP(=O)(O)O)cc2CP(=O)(O)O)cc1NC(=O)Nc1cc(C(=O)Nc2ccc(CP(=O)(O)O)cc2CP(=O)(O)O)ccc1C | > 100 | > 100 |  | > 100 | > 100 | > 100 | > 100 | > 100 | > 100 | > 100 |
| Cc1c(N=Nc2ccccc2)c(C)n(C2OC(CO)C(O)C(O)C2O)c(=S)c1C#N (stereo unspecified) |  | > 100 | 48.9 |  | > 100 | > 100 | > 100 |  | > 100 | 59.3 |
| CC(=O)Oc1ccc2c(c1)CC[C@@H]1C2[C@@H](O[N+](=O)[O-])C[C@@]2(C)C1CC[C@@H]2O[N+](=O)[O-] (stereo partly specified) | 26.6 | 33.1 | 23.5 |  | 28.7 | 33.6 | 29.1 | 33.4 | 33.6 | 25.9 |
| CC(C)=CCC/C(C)=C/COc1c2ccoc2cc2oc(=O)ccc12 | 72 | > 100 | > 100 | 87.6 |  | > 100 | > 100 | > 100 | > 100 | 79.7 |
| COc1ccc(C2C(C#N)=C(S)N(C3OC(COC(C)=O)C(OC(C)=O)C(OC(C)=O)C3OC(C)=O)C(c3ccccc3)=C2C(C)=O)cc1 (stereo unspecified) |  |  | > 100 | > 100 | > 100 | > 100 | > 100 | > 100 | > 100 | > 100 |
| Cc1sc2c(c1C)/C(=N\O)c1cccn1-2 | > 100 | > 100 |  | > 100 | 41.1 | > 100 | > 100 | > 100 | > 100 | > 100 |
| O=C(O)c1ccc(C2=Cc3cc(Cl)ccc3OC2)cc1 | > 100 | > 100 | > 100 | > 100 | > 100 | > 100 | > 100 | > 100 |  | > 100 |
| O=c1ccn(C2OC(CO)C(O)C2F)c(=O)n1Cc1ccccc1 (stereo unspecified) | > 100 | > 100 |  | > 100 | > 100 | > 100 | > 100 | > 100 | > 100 |  |
